# pIC50: −log10 of the molar value.
# Experiments:
# [1] = system: cultured human mast cells (CHMC); assay: CHMC low cell density IgE activation: tryptase assay; assay type: cell-based; details: anti-IgE
# How it was run: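 Low-density CHMC assay: donor-adjusted 1000-1500 cells/well, MT buffer, 1 hr 37° C preincubation; anti-IgE stimulus 30 min 37° C versus MT-only controls; supernatant tryptase by substrate, 30 min RT.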
# [2] = system: cultured human mast cells (CHMC); assay: CHMC low cell density ionomycin activation: tryptase assay; assay type: cell-based
Compound,pIC50 [1],pIC50 [2]
"OCCn1ncc2cc(Nc3nc(Nc4cccc(O)c4)ncc3F)ccc21 [R935259, 5-Fluoro-N4-[1-(2-hydroxyethyl)indazoline-5-yl]-N2-(3-hydroxyphenyl)-2,4-pyrimidinediamine]",5.75,< 5.00
"CCOC(=O)C(C)(C)c1ccc(Nc2nc(Nc3cccc(O)c3)ncc2F)cc1 [R935169, N4-[4-[(1-Ethoxycarbonyl-1-methyl)ethyl]phenyl]-5-fluoro-N2-(3-hydroxyphenyl)-2,4-pyrimidinediamine]",6.00,5.10
"CNC(=O)COc1cccc(Nc2ncc(F)c(Nc3cccc(C(=O)c4ccccc4)c3)n2)c1 [R950372, N4-(3-Phenylcarbonylphenyl)-5-fluoro-N2-[3-(N-methylamino)carbonylmethyleneoxyphenyl]-2,4-pyrimidinediamine]",5.87,< 5.00
"COc1ccc(-c2ccccc2)cc1Nc1ncc(F)c(Nc2cc(-c3ccccc3)ccc2OC)n1 [R926400, N2,N4-Bis[(2-methoxy-5-phenyl)phenyl]-5-fluoro-2,4-pyrimidinediamine]",< 5.00,< 5.00
"O=C(COc1cccc(Nc2ncc(F)c(Nc3ccc4c(c3)OCCO4)n2)c1)NC1CCCCC1 [R926765, N2-[3-(N-Cyclohexylamino)carbonylmethyleneoxyphenyl]-N4-(3,4-ethylenedioxyphenyl)-5-fluoro-2,4-pyrimidinediamine]",6.49,5.36
O=C1COc2ccc(Nc3nc(Cl)ncc3F)nc2N1 [Compound R945298],< 5.00,< 5.00
"CNC(=O)COc1ccc(Nc2ncc(F)c(Nc3cccc(O)c3)n2)cc1 [R945170, 5-Fluoro-N4-(3-hydroxyphenyl)-N2-[4-(N-methylamino)carbonylmethyleneoxyphenyl]-2,4-pyrimidinediamine]",6.18,< 5.00
"COC(=O)Cn1ncc2ccc(Nc3nc(Nc4cccc(O)c4)ncc3F)cc21 [R935220, 5-Fluoro-N2-(3-hydroxyphenyl)-N4-[1-(methoxycarbonyl)methyl-indazoline-6-yl]-2,4-pyrimidinediamine]",5.42,< 5.00
"CCOC(=O)COc1ccc(Nc2nc(Cl)cc(NCC(=O)OC)n2)cc1 [R926555, 6-Chloro-N2-(4-ethoxycarbonylmethyleneoxyphenyl)-N4-(methoxycarbonylmethyl)-2,4-pyrimidinediamine]",< 5.00,< 5.00
"O=C(COc1cccc(Nc2ncc(F)c(Nc3ccc4c(c3)OCCO4)n2)c1)N1CCOCC1 [R926484, N4-(3,4-Ethylenedioxyphenyl)-5-fluoro-N2-[3-(N-morpholino)carbonylmethyleneoxyphenyl]-2,4-pyrimidinediamine]",5.82,< 5.00
"CCOC(=O)c1cnc(Nc2ccc3cn[nH]c3c2)nc1Nc1ccc2cn[nH]c2c1 [R926320, N2,N4-Bis(3-indazol-6-yl)-5-ethoxycarbonyl-2,4-pyrimidinediamine]",< 5.00,< 5.00
"O=C(COc1ccc(Nc2ncc(F)c(Nc3ccc4c(c3)OCCO4)n2)cc1)NCCO [R909239, N4-(3,4-Ethylendioxyphenyl)-5-fluoro-N2-[4-(N-2-hydroxyethylamino)carbonylmethyleneoxyphenyl]-2,4-pyrimidinediamine]",6.58,< 5.00
"OCCCn1ncc2cc(Nc3ncc(F)c(Nc4cccc(OC(F)(F)F)c4)n3)ccc21 [R935362, 5-Fluoro-N2-[1-(3-hydroxypropyl)indazoline-5-yl]-N4-(3-trifluoromethoxyphenyl)-2,4-pyrimidinediamine]",6.39,< 5.00
"N2-(3,4-Ethylenedioxyphenyl)-5-ethoxycarbonyl-4-[N-(L)-phenyl glycinyl ethyl ester)-2-pyrimidineamine [R926536]",< 5.00,< 5.00
"Fc1cnc(Nc2ccc3[nH]ncc3c2)nc1Nc1ccc(Cl)c(Cl)c1 [R935371, N4-(3,4-Dichlorophenyl)-5-fluoro-N2-(indazoline-5-yl)-2,4-pyrimidinediamine]",6.10,< 5.00
"O=C(COc1cccc(Nc2ncc(F)c(Nc3ccc4c(c3)C(=O)OC4)n2)c1)NCC(O)CO (centres unmarked) [R940293, N4-(3,3-Dihydroisobenzofuran-1-one-6-yl)-N2-[3-(N-2,3-dihydroxypropylamino)carbonylmethyleneoxyphenyl]-5-fluoro-2,4-pyrimidinediamine]",< 5.00,< 5.00
"O=C(COc1cccc(Nc2ncc(F)c(Nc3cc(Cl)c(O)c(Cl)c3)n2)c1)N1CCNCC1 [R950188, N4-(3,5-Dichloro-4-hydroxyphenyl)-5-fluoro-N2-[3-(N-piperazino)carbonylmethyleneoxyphenyl]-2,4-pyrimidinediamine]",5.63,< 5.00

Compound,pIC50 [1],pIC50 [2]
"CNC(=O)C1Cc2cc(Nc3ncc(F)c(Nc4ccc5c(c4)OC(F)(F)O5)n3)ccc2O1 (racemic) [R927041, (±)-N2-[2,3-Dihydro-(N-methylamino)carbonylbenzofuran-5-yl]-N4-(3,4-difluoromethyleneoxyphenyl)-5-fluoro-2,4-pyrimidinediamine]",6.10,< 5.00
"Cc1cnc(Nc2ccc(OCc3nnn[nH]3)cc2)nc1Nc1cccc(O)c1 [R920820, N4-(3-Hydroxyphenyl)-5-methyl-N2-[4-(1H,1,2,3,4-tetrazol-5-yl)methyleneoxyphenyl]-2,4-pyrimidinediamine]",< 5.00,< 5.00
"COC(=O)c1cc2cc(Nc3ncc(F)c(Nc4ccc5c(c4)C(=O)OC5)n3)ccc2o1 [R940294, N4-(3,3-Dihydroisobenzofuranyl-1-one-6-yl)-5-fluoro-N2-(2-methoxycarbonylbenzofur-5-yl)-2,4-pyrimidinediamine]",5.86,< 5.00
"CCOC(=O)COc1ccc(Nc2nc(Nc3ccc(OCC(=O)OCC)cc3)c(NC(=O)Nc3ccccc3)c(C(=O)OCC)n2)cc1 [R926571, N2,N4-Bis(4-ethoxycarbonylmethyleneoxyphenyl)-6-ethoxycarbonyl-5-(phenylaminocarbonylamino)-2,4-pyrimidinediamine]",< 5.00,< 5.00
"CCOC(=O)C(C)(C)c1ccc(Nc2nc(Nc3ccc4c(c3)OCCO4)ncc2F)cc1 [R935148, N2-(3,4-Ethylenedioxyphenyl)-N4-[4-[(1-ethoxycarbonyl-1-methyl)ethyl]phenyl]-5-fluoro-2,4-pyrimidinediamine]",5.65,5.03
"OCCCn1ncc2cc(Nc3ncc(F)c(Nc4ccc5c(c4)OCCO5)n3)ccc21 [R935302, N4-(3,4-Ethylenedioxyphenyl)-5-fluoro-N2-[1-(3-hydroxypropyl)indazoline-5-yl]-2,4-pyrimidinediamine]",6.72,< 5.00
"CCOC(=O)COc1cccc(Nc2ncc(F)c(Nc3ccc(O)c(C(=O)OC)c3)n2)c1 [R950293, N4-(3-Methoxycarbonyl-4-hydroxyphenyl)-5-fluoro-N2-[3-ethoxycarbonylmethyleneoxyphenyl]-2,4-pyrimidinediamine]",5.43,5.09
"CN(CCO)C(=O)COc1cccc(Nc2ncc(F)c(Nc3ccc4c(c3)OCCO4)n2)c1 [R926766, N4-(3,4-Ethylenedioxyphenyl)-5-fluoro-N2-[3-[N-methyl-N-(2-hydroxyethyl)amino]carbonylmethyleneoxyphenyl]-2,4-pyrimidinediamine]",6.12,< 5.00
"CNC(=O)COc1cccc(Nc2ncc(F)c(Nc3ccc(OC(F)(F)F)c(C(=O)OC)c3)n2)c1 [R950392, N4-(3-Methoxycarbonyl-4-trifluoromethoxyphenyl)-5-fluoro-N2-[3-(N-methylamino)carbonylmethyleneoxyphenyl]-2,4-pyrimidinediamine]",6.02,< 5.00
"CNC(=O)COc1cccc(Nc2nc(Nc3cc(OC)cc(OC)c3)ncc2F)c1 [R926810, N2-(3,5-Dimethoxyphenyl)-N4-[3-(N-methylamino)carbonylmethyleneoxyphenyl)-5-fluoro-2,4-pyrimidinediamine]",5.91,< 5.00
"CSc1nc(Nc2ccc3c(c2)OCCO3)nc(Nc2ccc3c(c2)OCCO3)c1Cl [R926475, N2,N4-Bis(3,4-ethyelenedioxyphenyl)-5-chloro-6-thiomethyl-2,4-pyrimidinediamine]",5.67,< 5.00
"CC(C)Oc1ccc(Nc2ncc(F)c(Nc3ccc4c(cnn4C)c3)n2)cc1 [R935203, 5-Fluoro-N2-(4-isopropoxyphenyl)-N4-(1-methyl-indazoline-5-yl)-2,4-pyrimidinediamine]",6.25,< 5.00
"CCOC(=O)c1cnc(Nc2ccc3c(c2)NC(=O)CO3)nc1Nc1ccc2c(c1)NC(=O)CO2 [R926325, N2,N4-Bis[6-(1,4-benzoxazine-3-onyl)]-5-ethoxycarbonyl-2,4-pyrimidinediamine]",< 5.00,< 5.00
"CCOC(=O)COc1cccc(Nc2ncc(F)c(Nc3ccc4c(c3)NCCO4)n2)c1 [R909242, N4-(1,4-Benzoxazin-6-yl)-N2-[3-ethoxyocarbonylmethyleneoxyphenyl]-5-fluoro-2,4-pyrimidinediamine]",6.25,< 5.00
"Cc1nc(COc2cccc(Nc3nc(Nc4cccc(O)c4)ncc3F)c2)no1 [R945132, 5-Fluoro-N2-(3-hydroxyphenyl)-N4-[3-(5-methyl-1,2,4-oxadiazol-3-yl)methyleneoxyphenyl]-2,4-pyrimidinediamine]",6.24,5.06
"CNC(=O)COc1ccc(Nc2ncc(F)c(Nc3ccc4c(c3)OCCO4)n2)cc1 [R926708, N4-(3,4-Ethylenedioxyphenyl)-5-fluoro-N2-[4-(N-methylamino)carbonylmethyleneoxyphenyl]-2,4-pyrimidinediamine]",6.33,< 5.00
"CNC(=O)COc1cccc(Nc2ncc(F)c(Nc3cc(OC)cc(C(F)(F)F)c3)n2)c1 [R926833, 5-Fluoro-N4-(3-methoxy-5-trifluoromethylphenyl)-N2-[3-(N-methylamino)carbonylmethyleneoxyphenyl]-2,4-pyrimidinediamine]",5.95,< 5.00

# Source: patent publication US9499493B2, “2,4-pyrimidinediamine compounds and their uses” (Rigel Pharmaceuticals, Inc., priority 2002, dated 2016)
